# Measurements: patent US20260285853A1, “COMPOUNDS AND METHODS FOR MODULATING SPLICING” (REMIX THERAPEUTICS INC., priority 2023, published 2026)
# Read-outs that look alike come from different tables or passages of the source.
# How the values were obtained:
# Format in all cases: cell-based
# MYB mRNA [1] = assay: Gene panel canonical junction qPCR assay, decrease in CJ mRNA, Table 3
# How it was run: (§1)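 Eleven-point dose responses from 10 uM final, 24 h, DMSO ≤0.25%, in A673 or K562 cells. Relative quantification by 2^(−ΔΔCt) against housekeeper and vehicle was converted to percent response over fixed ΔCt windows and fitted to yield IC50.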
# HTT mRNA [2] = assay: as above
# How it was run: as §1
# MYB mRNA [3] = assay: Splicing RT-qPCR assay (THP), Table 2A
# [4] = test system: SH-SY5Y (human neuroblastoma) cells; assay: Cell viability, Cell Titer Glo 2.0 assay; settings: read-out: Viability SHSY5Y.3 GI50
# How it was run: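 Following a 72 h incubation (37 °C, 5% CO2, 0.1% DMSO final), compound toxicity toward SH-SY5Y cells was quantified by CellTiter-Glo 2.0.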
# HTT mRNA [5] = assay: Splicing RT-qPCR assay (THP), Table 2A
# [6] = decrease in canonical junction (CJ) mRNA, gene panel qPCR, Table 3
# [7] = Table 2A (THP), AJ mRNA increase, read-out: MYB AJ (increase in alternative junction mRNA, AC50)
# [8] = Table 2A (THP), CJ mRNA decrease, read-out: MYB CJ (decrease in canonical junction mRNA, IC50)
# [9] = Table 2A (THP), AJ mRNA increase, read-out: HTT AJ (increase in alternative junction mRNA, AC50)
# [10] = Table 2A (THP), CJ mRNA decrease, read-out: HTT CJ (decrease in canonical junction mRNA, IC50)
# [11] = decrease in CJ mRNA levels, canonical junction qPCR, gene panel
# [12] = Table 2A, THP, MYB alternative junction (AJ) mRNA, read-out: MYB AJ (AC50, increase in alternative junction mRNA)
# [13] = Table 2A, THP, MYB canonical junction (CJ) mRNA, read-out: MYB CJ (IC50, decrease in canonical junction mRNA)
# [14] = Table 2A, THP, HTT alternative junction (AJ) mRNA, read-out: HTT AJ (AC50, increase in alternative junction mRNA)
# [15] = Table 2A, THP, HTT canonical junction (CJ) mRNA, read-out: HTT CJ (IC50, decrease in canonical junction mRNA)
Compound,IC50 (MYB mRNA [1]; [6]),IC50 (HTT mRNA [2]; [6]),AC50 (MYB mRNA [3]; [7]),IC50 (MYB mRNA [3]; [8]),GI50 [4],AC50 (HTT mRNA [5]; [9]),IC50 (HTT mRNA [5]; [10]),IC50 (MYB mRNA [1]; [11]),IC50 (HTT mRNA [2]; [11]),AC50 (MYB mRNA [3]; [12]),IC50 (MYB mRNA [3]; [13]),AC50 (HTT mRNA [5]; [14]),IC50 (HTT mRNA [5]; [15])
CNC1CCC(Oc2ccc(C(=O)Nc3cn4cc(C)nc(C)c4n3)c3nn(C)cc23)C1 (centres unmarked) [Compound 594],> 10000 nM,> 10000 nM,> 10000 nM,> 10000 nM,> 10000 nM,> 10000 nM,> 10000 nM,,,,,,
"COc1nc2c(C(=O)Nc3cc4cc(C)nn4cc3OC)ccc(N3C[C@H](C)N[C@@H](C)C3)c2s1 [Compound 787, 7-((3S,5S)-3,5-dimethylpiperazin-1-yl)-2-methoxy-N-(6-methoxy-2-methylpyrazolo[1,5-a]pyridin-5-yl)benzo[d]thiazole-4-carboxamide 2,2,2-trifluoroacetate]",,,,,1000 to 10000 nM,,,1000 to 10000 nM,> 10000 nM,> 10000 nM,1000 to 10000 nM,> 10000 nM,> 10000 nM
"Cc1cn2cc(NC(=O)c3ccc(N4CCC(NC5CC5)CC4)c4cn(C)nc34)nc2c(-c2ccn[nH]2)n1 [Compound 487, 4-(4-(cyclopropyl-amino)piperidin-1-yl)-2-methyl-N-(6-methyl-8-(1H-pyrazol-5-yl)imidazo[1,2-a]-pyrazin-2-yl)-2H-indazole-7-carboxamide 2,2,2-trifluoroacetate]",> 10000 nM,1000 to 10000 nM,> 10000 nM,> 10000 nM,1000 to 10000 nM,> 10000 nM,1000 to 10000 nM,,,,,,
"CCNC1CCN(c2ccc(C(=O)Nc3cn4cc(C)nc(C)c4c3OC)c3nn(C)cc23)CC1 [Compound 452, 4-(4-(ethylamino)-piperidin-1-yl)-N-(8-methoxy-1,3-dimethyl-pyrrolo[1,2-a]pyrazin-7-yl)-2-methyl-2H-indazole-7-carboxamide 2,2,2-trifluoroacetate]",> 10000 nM,> 10000 nM,> 10000 nM,> 10000 nM,1000 to 10000 nM,> 10000 nM,> 10000 nM,,,,,,
"Cc1cn2cc(NC(=O)c3ccc(N4CCC(NC5CC5)CC4)c4cn(C)nc34)nc2c(CN(C)C)n1 [Compound 600, 4-(4-(cyclopropylamino)piperidin-1-yl)-N-(8-((dimethylamino)methyl)-6-methylimidazo[1,2-a]pyrazin-2-yl)-2-methyl-2H-indazole-7-carboxamide bis(2,2,2-trifluoroacetate)]",> 10000 nM,> 10000 nM,,,1000 to 10000 nM,,,,,> 10000 nM,> 10000 nM,> 10000 nM,> 10000 nM
CNCC1CCN(c2ccc(C(=O)Nc3cc4cn(C)nc4cc3OC)c3nn(C)cc23)C1 (centres unmarked) [Compound 538],100 to 1000 nM,> 10000 nM,100 to 1000 nM,100 to 1000 nM,1000 to 10000 nM,> 10000 nM,> 10000 nM,,,,,,
COc1cc2nn(C)cc2cc1NC(=O)c1ccc(N(C)C2CCNCC2)c2cn(C)nc12 [Compound 548],100 to 1000 nM,> 10000 nM,100 to 1000 nM,100 to 1000 nM,1000 to 10000 nM,> 10000 nM,> 10000 nM,,,,,,
"COc1cc2nn(C)cc2cc1NC(=O)c1c(C)cc(N2CCC(NC3CC3)CC2)c2cn(C)nc12 [Compound 472, 4-[4-(cyclopropylamino)-1-piperidyl]-N-(6-methoxy-2-methyl-indazol-5-yl)-2,6-dimethylindazole-7-carboxamide]",> 10000 nM,> 10000 nM,1000 to 10000 nM,> 10000 nM,1000 to 10000 nM,> 10000 nM,> 10000 nM,,,,,,
"CCNC1CCN(c2ccc(C(=O)Nc3cc(Oc4ccccc4C)c4nc(C)cn4c3)c3nn(C)cc23)CC1 [Compound 316, 4-[4-(ethylamino)-1-piperidyl]-2-methyl-N-[2-methyl-8-(2-methylphenoxy)imidazo[1,2-a]pyridin-6-yl]indazole-7-carboxamide]",1000 to 10000 nM,> 10000 nM,> 10000 nM,1000 to 10000 nM,1000 to 10000 nM,> 10000 nM,> 10000 nM,,,,,,
Cc1cn2cc(NC(=O)c3ccc(N4CCC(N(C)C)CC4)c4cn(C)nc34)nc2c(CNS(C)(=O)=O)n1 [Compound 851],,,,,> 10000 nM,,,> 10000 nM,> 10000 nM,> 10000 nM,> 10000 nM,> 10000 nM,> 10000 nM
"CCNC1CCN(c2ccc(C(=O)Nc3cc4cn(C)nc4cc3OC)c3nn(C)cc23)CC1 [Compound 388, 4-[4-(ethylamino)-1-piperidyl]-N-(6-methoxy-2-methyl-indazol-5-yl)-2-methyl-indazole-7-carboxamide]",100 to 1000 nM,1000 to 10000 nM,100 to 1000 nM,100 to 1000 nM,1000 to 10000 nM,1000 to 10000 nM,1000 to 10000 nM,,,,,,
"Cc1cn2cc(NC(=O)c3c(F)cc(N4CCC(NC5CC5)CC4)c4cn(C)nc34)c(OCC3CC3)c(F)c2n1 [Compound 321, 4-[4-(cyclopropylamino)-1-piperidyl]-N-[7-(cyclopropylmethoxy)-8-fluoro-2-methyl-imidazo[1,2-a]-pyridin-6-yl]-6-fluoro-2-methyl-indazole-7-carboxamide]",< 100 nM,100 to 1000 nM,< 100 nM,< 100 nM,< 100 nM,< 100 nM,100 to 1000 nM,,,,,,
CCNC1CCN(c2ccc(C(=O)Nc3cn4cc(C)nc(CC(=O)N(C)C)c4n3)c3nn(C)cc23)CC1 [Compound 856],,,,,1000 to 10000 nM,,,1000 to 10000 nM,1000 to 10000 nM,1000 to 10000 nM,1000 to 10000 nM,1000 to 10000 nM,1000 to 10000 nM
"CNC1CCN(c2ccc(C(=O)Nc3cn4cc(C)nc(CNS(C)(=O)=O)c4n3)c3nn(C)cc23)C1 (centres unmarked) [Compound 848, N-[8-(methanesulfonamidomethyl)-6-methyl-imidazo[1,2-a]pyrazin-2-yl]-2-methyl-4-[3-(methylamino)pyrrolidin-1-yl]indazole-7-carboxamide]",,,,,100 to 1000 nM,,,100 to 1000 nM,100 to 1000 nM,100 to 1000 nM,100 to 1000 nM,100 to 1000 nM,100 to 1000 nM
"C[C@H]1CN(c2ccc(C(=O)Nc3cc(F)c4nn(C)cc4c3)c3nc(CNS(C)(=O)=O)sc23)C[C@H](C)N1 [Compound 706, 7-[(3S,5S)-3,5-dimethylpiperazin-1-yl]-N-(7-fluoro-2-methyl-indazol-5-yl)-2-(methanesulfonamidomethyl)-1,3-benzothiazole-4-carboxamide]",,,,,100 to 1000 nM,,,100 to 1000 nM,100 to 1000 nM,< 100 nM,100 to 1000 nM,100 to 1000 nM,100 to 1000 nM
COC(=O)NCc1nc(C)cn2cc(NC(=O)c3ccc(N4CCC(NC5CC5)CC4)c4cn(C)nc34)nc12 [Compound 807],,,,,1000 to 10000 nM,,,> 10000 nM,> 10000 nM,> 10000 nM,> 10000 nM,> 10000 nM,> 10000 nM
"CCNC1CCN(c2ccc(C(=O)Nc3cn4cc(CO)nc(C)c4n3)c3nn(C)cc23)CC1 [Compound 337, 4-(4-(ethylamino)piperidin-1-yl)-N-(6-(hydroxymethyl)-8-methylimidazo[1,2-a]pyrazin-2-yl)-2-methyl-2H-indazole-7-carboxamide 2,2,2-trifluoroacetate]",1000 to 10000 nM,> 10000 nM,1000 to 10000 nM,1000 to 10000 nM,> 10000 nM,> 10000 nM,> 10000 nM,,,,,,
"CCNC1CCN(c2cc(F)c(C(=O)Nc3cn4cc(C)nc4c(N)c3OC)c3nn(C)cc23)CC1 [Compound 364, N-(8-amino-7-methoxy-2-methyl-imidazo[1,2-a]-pyridin-6-yl)-4-[4-(ethylamino)-1-piperidyl]-6-fluoro-2-methyl-indazole-7-carboxamide]",< 100 nM,1000 to 10000 nM,< 100 nM,100 to 1000 nM,1000 to 10000 nM,100 to 1000 nM,1000 to 10000 nM,,,,,,
"CCNC1CCN(c2cc(F)c(C(=O)Nc3cn4cc(CF)nc(C)c4n3)c3nn(C)cc23)CC1 [Compound 383, 4-(4-(ethylamino)piperidin-1-yl)-6-fluoro-N-(6-(fluoromethyl)-8-methylimidazo[1,2-a]-pyrazin-2-yl)-2-methyl-2H-indazole-7-carboxamide 2,2,2-trifluoroacetate]",< 100 nM,> 10000 nM,< 100 nM,< 100 nM,1000 to 10000 nM,100 to 1000 nM,> 10000 nM,,,,,,
"CCNC1CCN(c2cc(F)c(C(=O)Nc3cc4c(C)nc(C)cn4c3)c3nn(C)cc23)CC1 [Compound 344, N-(1,3-dimethylpyrrolo[1,2-a]-pyrazin-7-yl)-4-[4-(ethylamino)-1-piperidyl]-6-fluoro-2-methyl-indazole-7-carboxamide]",100 to 1000 nM,> 10000 nM,100 to 1000 nM,100 to 1000 nM,1000 to 10000 nM,> 10000 nM,> 10000 nM,,,,,,
